According to patent US6906205B2, “Spiro and dispiro 1,2,4-trioxolane antimalarials” (Medicines for Malaria Venture MMV, priority 2002, dated 2005):
≈ marks a conversion by molar mass, not a printed value.

Key:
[1] = tested on: Schistosoma mansoni adult schistosomes (49-day-old); assay: effect on adult schistosomes (49-day-old) in mice; assay type: in vivo; conditions: single 400 mg/kg per os
Experimental: Mice were infected with 100 Schistosoma mansoni cercariae […]. Each group was treated per os with OZ compounds at single doses of 200, 400, and 600 mg/kg. […] All groups were killed 4 weeks after treatment and the liver and intestine were removed and separated. The liver and intestine were compressed and alive male and female worms could be seen and counted.

[2] = tested on: P. falciparum NF54 strain (sensitive to standard antimalarials); assay: semiautomated microdilution assay, [3H]-hypoxanthine incorporation, NF54 strain; assay type: cell-based, Plasmodium falciparum; conditions: NF54 strain, 72 h incubation
How it was run: (§1)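 IC50 values come from logit regression of semiautomated microdilution data obtained on intraerythrocytic parasites drawn from asynchronous cultures.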

[3] = tested on: ANKA strain of P. berghei; assay: single dose STI in vivo screen in infected mice; design: species or system Plasmodium berghei; conditions: for Activity (%) po / Survival (days) po: single 10 mg/kg po in 3% ethanol and 7% Tween 80; for Activity (%) po / Activity (%) sc / Activity (%) SSVpo: mice; for Activity (%) sc / Survival (days) sc: single 10 mg/kg sc in 3% ethanol and 7% Tween 80; for Survival (days) po / Survival (days) sc / Survival (days) SSVpo: untreated control 5.6 ± 0.3; for Activity (%) SSVpo: single po dose in standard suspending vehicle (SSV); for Survival (days) SSVpo: single po dose in SSV; for Activity (%) 10 mg/kg SSV po / Survival (days) 10 mg/kg SSV po: single 10 mg/kg po in SSV
How it was run: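 Groups of 3-5 Moro SPF or NMRI mice infected with the ANKA strain of P. berghei received a single dose of trioxolane on day one post-infection. The compound was given in 3% ethanol and 7% Tween 80 or in SSV (0.5% w/v CMC, 0.5% v/v benzyl alcohol, 0.4% v/v Tween 80, 0.9% w/v sodium chloride in water). Antimalarial activity was scored as percent reduction in parasitemia on day three and as survival time versus untreated controls. Survival to day 30 counted as cure.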

[4] = tested on: P. falciparum K1 strain (Thailand resistant to chloroquine); assay: semiautomated microdilution assay, [3H]-hypoxanthine incorporation, K1 strain; assay type: cell-based, Plasmodium falciparum; conditions: K1 strain, 72 h incubation
How it was run: as §1

[5] = percent reduction in parasitemia day 3 post-infection
[6] = percent reduction in parasitemia day 3 post-infection, 10 mg/kg

Row | SMILES | % reduction of adult worms growth at day 49 after per os application of 400 mg/kg, TWR (%) [1] | adult worms at day 49, per os 400 mg/kg, DEAD WORM (%) [1] | IC50 (ng/ml) NF54 [2] | Activity (%) po [3, 5] | Activity (%) sc [3, 5] | Survival (days) po [3] | Survival (days) sc [3] | IC50 (ng/ml) K1 [4] | Activity (%) po [3, 6] | Activity (%) sc [3, 6] | Survival (days) po ([3]; 10 mg/kg) | Survival (days) sc ([3]; 10 mg/kg) | Activity (%) SSVpo [3, 5] | Survival (days) SSVpo [3] | Activity (%) 3 mg/kg SSV po ([3]; percent reduction in parasitemia day 3 post-infection, single 3 mg/kg po in SSV) | Activity (%) 10 mg/kg SSV po [3, 5] | Survival (days) 3 mg/kg SSV po ([3]; single 3 mg/kg po in SSV) | Survival (days) 10 mg/kg SSV po [3] | IC50 ([2]; Plasmodium falciparum, read-out: IC50 (ng/ml) NF54) | IC50 ([4]; Plasmodium falciparum, read-out: IC50 (ng/ml) K1)
1 | CC1(C)COC2(CCC3(CC2)OOC2(O3)C3CCCC2CCC3)OC1 (centres unmarked) [OZ68] | 17% | 0% | 49 ng/mL (≈ 0.139 µM) | 1% | 6% | 5.0 days | 5.3 days | 41 ng/mL (≈ 0.116 µM) | – | – | – | – | – | – | – | – | – | – | – | –
2 | O=C(O)C1CCC2(CC1)OOC1(O2)C2CC3CC(C2)CC1C3 (centres unmarked) [OZ72] | – | 10% | 13 ng/mL (≈ 0.0422 µM) | – | – | – | – | 15 ng/mL (≈ 0.0486 µM) | 97% | 95% | 7.7 days | 6.7 days | – | – | – | – | – | – | – | –
3 | NC(=O)OC1CCC2(CC1)OOC1(O2)C2CC3CC(C2)CC1C3 (centres unmarked) [OZ107] | 26% | 4% | 0.30 ng/mL (≈ 0.000928 µM) | 70% | 99.74% | 6.3 days | 8.0 days | 1.0 ng/mL (≈ 0.00309 µM) | – | – | – | – | 32% | 6.3 days | – | – | – | – | – | –
4 | OC12CC3CC(C1)C1(OOC4(CCC5(CC4)OCCO5)O1)C(C3)C2 (centres unmarked) [OZ153] | No alive/dead worm* | – | 19 ng/mL (≈ 0.0561 µM) | – | – | 6.3 days | – | 7.7 ng/mL (≈ 0.0228 µM) | 15% | 20% | – | 6.3 days | 23% | 7.0 days | – | – | – | – | – | –
5 | OC1(c2ccc(F)cc2)CCC2(CC1)OOC1(O2)C2CC3CC(C2)CC1C3 (centres unmarked) [OZ76] | 32% | 0% | 3.0 ng/mL (≈ 0.00801 µM) | 49% | 94% | 6.3 days | 8.0 days | 1.7 ng/mL (≈ 0.00454 µM) | – | – | – | – | – | – | – | – | – | – | – | –
6 | O=C([C@H]1CC[C@]2(CC1)OOC1(O2)C2CC3CC(C2)CC1C3)N1CCN(c2ccccc2)CC1 (some centres unmarked) [OZ140] | 0% | 3% | 8.2 ng/mL (≈ 0.0181 µM) | 0% | 60% | 6.0 days | 7.0 days | 5.9 ng/mL (≈ 0.013 µM) | – | – | – | – | 8% | 6.3 days | – | – | – | – | – | –
7 | C1=C(c2ccccc2)CCC2(C1)OOC1(O2)C2CC3CC(C2)CC1C3 (centres unmarked) [OZ226] | 52% | 0% | 4.0/4.0 ng/ml | 0% | 99.92% | 5.0 days | 11.0 days | 4.0/4.0 ng/ml | – | – | – | – | 0% | 5.3 days | – | – | – | – | – | –
8 | O=[N+]([O-])c1cccc(C2(c3cccc([N+](=O)[O-])c3)OOC3(O2)C2CC4CC(C2)CC3C4)c1 (centres unmarked) [OZ105] | 8% | 0% | – | 16% | 28% | 5.7 days | 6.3 days | 5.4 ng/mL (≈ 0.0123 µM) | – | – | – | – | 0% | 5.7 days | – | – | – | – | – | –
9 | CC1(C)COC(c2ccc([C@H]3CC[C@]4(CC3)OOC3(O4)C4CC5CC(C4)CC3C5)cc2)=N1 (some centres unmarked) [OZ154] | 58% | 0% | 6.1 ng/mL (≈ 0.0139 µM) | – | – | – | – | 5.0 ng/mL (≈ 0.0114 µM) | 99.74% | 59% | 14.7 days | 7.7 days | 81% | 8.7 days | – | – | – | – | – | –
10 | CCN(CC)CC[C@H]1CC[C@]2(CC1)OOC1(O2)C2CC3CC(C2)CC1C3 (some centres unmarked) [OZ126] | 0% | 9% | 0.50 ng/mL (≈ 0.00138 µM) | 55% | 99.44% | 7.0 days | 8.5 days | 0.20 ng/mL (≈ 0.00055 µM) | – | – | – | – | 72% | 6.7 days | – | – | – | – | – | –
11 | O=C(O)c1cn(C[C@H]2CC[C@]3(CC2)OOC2(O3)C3CC4CC(C3)CC2C4)cn1 (some centres unmarked) [OZ225] | – | – | > 10 ng/mL | 0% | 17% | 5.7 days | 6.3 days | 7.3 ng/mL (≈ 0.0188 µM) | – | – | – | – | 0% | 5.7 days | – | – | – | – | – | –
12 | O=C1c2ccccc2C(=O)N1C[C@H]1CC[C@@]2(CC1)OOC1(O2)C2CC3CC(C2)CC1C3 (some centres unmarked) [OZ167] | – | – | > 10 ng/mL | 0% | 97% | 6.0 days | 7.3 days | 6.7 ng/mL (≈ 0.0158 µM) | – | – | – | – | 6% | 6.0 days | – | – | – | – | – | –
13 | NC(=O)[C@@H]1CCCN1C(=O)C[C@H]1CC[C@]2(CC1)OO[C@]1(O2)C2CC3CC(C2)CC1C3 [OZ346] | – | – | 4.7 ng/mL (≈ 0.0112 µM) | – | – | – | – | 3.8 ng/mL (≈ 0.00908 µM) | – | – | – | – | – | – | 51% | 85% | 7.6 days | 8.8 days | – | –
14 | O=C(C[C@H]1CC[C@]2(CC1)OOC1(O2)C2CC3CC(C2)CC1C3)N1CCN(c2ccccc2)CC1 (some centres unmarked) [OZ244] | – | – | 4.2 ng/mL (≈ 0.009 µM) | 6% | 18% | 5.7 days | 6.3 days | 4.0 ng/mL (≈ 0.00857 µM) | – | – | – | – | 0% | 5.3 days | – | – | – | – | – | –
15 | NC(=O)C(=O)NC[C@H]1CC[C@]2(CC1)OOC1(O2)C2CC3CC(C2)CC1C3 (some centres unmarked) [OZ268] | – | – | 0.71 ng/mL (≈ 0.00195 µM) | 99.86% | 99.92% | 9.3 days | 9.7 days | 0.44 ng/mL (≈ 0.00121 µM) | – | – | – | – | 99.47% | 13.3 days | – | – | – | – | – | –
16 | COCC(=O)N(Cc1ccccc1)C1CCC2(CC1)OOC1(O2)C2CC3CC(C2)CC1C3 (centres unmarked) [OZ173] | – | – | 32 ng/mL (≈ 0.0725 µM) | 15% | 80% | 7.0 days | 9.7 days | 58 ng/mL (≈ 0.131 µM) | – | – | – | – | 0% | 6.7 days | – | – | – | – | – | –
17 | CCCCS(=O)(=O)N1CCC2(CC1)OOC1(O2)C2CC3CC(C2)CC1C3 (centres unmarked) [OZ92] | – | – | 0.40 ng/mL (≈ 0.00104 µM) | 81% | 99.98% | 6.7 days | 10.0 days | 1.6 ng/mL (≈ 0.00415 µM) | – | – | – | – | 35% | 6.3 days | – | – | – | – | – | –
18 | O=C(NO)c1ccc([C@H]2CC[C@]3(CC2)OOC2(O3)C3CC4CC(C3)CC2C4)cc1 (some centres unmarked) [OZ183] | – | – | 2.1 ng/mL (≈ 0.00526 µM) | 65% | 81% | 6.0 days | 8.3 days | 0.80 ng/mL (≈ 0.002 µM) | – | – | – | – | 19% | 6.0 days | – | – | – | – | – | –
19 | FC1CCCCC12OOC1(CCCCC1)O2 (centres unmarked) [OZ06] | – | – | 22 ng/mL (≈ 0.0955 µM) | – | – | 1.0/NA/1.0^1 days | 1.0/NA/1.0^1 days | 18 ng/mL (≈ 0.0782 µM) | – | – | – | – | – | – | – | – | – | – | – | –
20 | CCOC(=O)CC1CCC2(CC1)OOC1(O2)C2CC3CC(C2)CC1C3 (centres unmarked) [OZ61] | – | – | – | 91% | 96% | 7.0 days | 7.3 days | – | – | – | – | – | – | – | – | – | – | – | 0.53 ng/mL (≈ 0.00151 µM) | 0.52 ng/mL (≈ 0.00148 µM)
21 | FC1(c2ccccc2)CCC2(CC1)OOC1(O2)C2CC3CC(C2)CC1C3 (centres unmarked) [OZ274] | – | – | 5.7 ng/mL (≈ 0.0159 µM) | – | – | – | – | 5.1 ng/mL (≈ 0.0142 µM) | – | – | – | – | – | – | – | 11/ND % | – | 7.0/ND days | – | –
